The values below come from ChEMBL document CHEMBL1134204, “Carbonic anhydrase inhibitors: synthesis of sulfonamides incorporating dtpa tails and of their zinc complexes with powerful topical antiglaucoma properties” (Bioorg Med Chem Lett, 2001).

What is called Ki is the dissociation constant of the complex between target and ligand, obtained from inhibition or displacement.

In test [1] the target is Carbonic anhydrase 4 (Homo sapiens, UniProt P22748).
Test [2] addresses Carbonic anhydrase 1 (Homo sapiens, UniProt P00915).

Sequence of Carbonic anhydrase 1 (P00915 whole entry): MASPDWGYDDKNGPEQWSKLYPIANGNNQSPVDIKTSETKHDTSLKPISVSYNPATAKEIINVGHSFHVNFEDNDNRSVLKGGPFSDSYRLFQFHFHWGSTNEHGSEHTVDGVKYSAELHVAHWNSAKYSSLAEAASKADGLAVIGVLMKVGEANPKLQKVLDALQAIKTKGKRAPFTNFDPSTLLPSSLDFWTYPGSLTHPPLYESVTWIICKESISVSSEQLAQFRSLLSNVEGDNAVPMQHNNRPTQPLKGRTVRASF
Sequence of Carbonic anhydrase 4 (P22748 whole entry): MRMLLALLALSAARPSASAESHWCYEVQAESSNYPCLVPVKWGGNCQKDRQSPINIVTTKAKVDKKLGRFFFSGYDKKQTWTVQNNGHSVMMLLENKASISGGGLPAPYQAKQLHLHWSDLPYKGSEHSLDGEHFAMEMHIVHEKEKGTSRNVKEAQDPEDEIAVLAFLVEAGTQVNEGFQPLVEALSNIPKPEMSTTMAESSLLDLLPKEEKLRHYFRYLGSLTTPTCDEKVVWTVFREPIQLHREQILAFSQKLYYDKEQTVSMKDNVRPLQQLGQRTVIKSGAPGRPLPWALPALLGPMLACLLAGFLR

`NS(=O)(=O)c1ccccc1NC(=O)CN(CCN(CCN(CC(=O)O)CC(=O)Nc1ccccc1S(N)(=O)=O)CC(=O)O)CC(=O)O`: the Ki stood at 330 nM in test [1] and 5400 nM in test [2].

On to `NS(=O)(=O)c1nc2ccc(NC(=O)CN(CCN(CCN(CC(=O)O)CC(=O)Nc3ccc4nc(S(N)(=O)=O)sc4c3)CC(=O)O)CC(=O)O)cc2s1`, for which the Ki was found to be 6 nM in test [1] and 25 nM in test [2].

In test [1], `NS(=O)(=O)c1cccc(NC(=O)CN(CCN(CCN(CC(=O)O)CC(=O)Nc2cccc(S(N)(=O)=O)c2)CC(=O)O)CC(=O)O)c1` returned an inhibitory constant (Ki) of 425 nM.

With `NS(=O)(=O)c1cc(S(N)(=O)=O)c(NC(=O)CN(CCN(CCN(CC(=O)O)CC(=O)Nc2cc(Cl)c(S(N)(=O)=O)cc2S(N)(=O)=O)CC(=O)O)CC(=O)O)cc1Cl`, the Ki came to 41 nM in test [1] and 63 nM in test [2].

For the molecule `NS(=O)(=O)c1nnc(NC(=O)CCNC(=O)CN(CCN(CCN(CC(=O)O)CC(=O)NCCC(=O)Nc2nnc(S(N)(=O)=O)s2)CC(=O)O)CC(=O)O)s1`, the inhibition constant Ki in test [1] is 8 nM; in test [2], 102 nM.

Regarding `Nc1ccc(S(N)(=O)=O)cc1F`, in test [1], the affinity corresponds to a Ki of 180 nM.

As for `NS(=O)(=O)c1ccc(NNC(=O)CN(CCN(CCN(CC(=O)O)CC(=O)NNc2ccc(S(N)(=O)=O)cc2)CC(=O)O)CC(=O)O)cc1`, the inhibition constant Ki was found to be 430 nM in test [1] and 9800 nM in test [2].

Take `NS(=O)(=O)c1cc(S(N)(=O)=O)c(NC(=O)CN(CCN(CCN(CC(=O)O)CC(=O)Nc2c(S(N)(=O)=O)cc(S(N)(=O)=O)c(Cl)c2Cl)CC(=O)O)CC(=O)O)c(Cl)c1Cl`: the Ki in test [1] was 25 nM; in test [2] it was 43 nM.

As for `NS(=O)(=O)c1nc2ccc(OCCOC(=O)CN(CCN(CCN(CC(=O)O)CC(=O)OCCOc3ccc4nc(S(N)(=O)=O)sc4c3)CC(=O)O)CC(=O)O)cc2s1`, the Ki in test [1] worked out at 4 nM; in test [2], 16 nM.

Take `NS(=O)(=O)c1ccc(NC(=O)CN(CCN(CCN(CC(=O)O)CC(=O)Nc2ccc(S(N)(=O)=O)cc2Cl)CC(=O)O)CC(=O)O)c(Cl)c1`: the Ki in test [1] came out at 27 nM; in test [2], 155 nM.

For `NS(=O)(=O)c1ccc(CNC(=O)CN(CCN(CCN(CC(=O)O)CC(=O)NCc2ccc(S(N)(=O)=O)cc2)CC(=O)O)CC(=O)O)cc1` [listing 1 of 2 here], the Ki in test [1] is 37 nM.

For `NCCC(=O)Nc1nnc(S(N)(=O)=O)s1`, the Ki in test [1] stood at 125 nM. Against the preceding molecule, the Ki is about 3.4-fold higher.

Consider `NS(=O)(=O)c1ccc(NC(=O)CN(CCN(CCN(CC(=O)O)CC(=O)Nc2ccc(S(N)(=O)=O)cc2F)CC(=O)O)CC(=O)O)c(F)c1`, for which the figures for the Ki in test [1] and in test [2] were 18 nM and 135 nM, respectively.

With `Nc1ccc(S(N)(=O)=O)cc1` [SULFANILAMIDE], the inhibitory constant (Ki) in test [1] was 3000 nM.

Regarding `Cn1nc(S(N)(=O)=O)s/c1=N\C(=O)CN(CCN(CCN(CC(=O)O)CC(=O)/N=c1/sc(S(N)(=O)=O)nn1C)CC(=O)O)CC(=O)O`, the Ki worked out at 5 nM in test [1] and 43 nM in test [2].

In the case of `Nc1ccc2nc(S(N)(=O)=O)sc2c1`, in test [1], the Ki is 19 nM.

Turning to `Nc1ccc(S(N)(=O)=O)cc1Br`, the inhibition constant Ki in test [1] amounted to 66 nM.

Molecule `Nc1ccccc1S(N)(=O)=O` gave an inhibition constant (Ki) in test [1] of 1310 nM.

Consider `NS(=O)(=O)c1ccc(CCO)cc1`, for which the Ki in test [1] came out at 450 nM.

Molecule `NS(=O)(=O)c1ccc(CCNC(=O)CN(CCN(CCN(CC(=O)O)CC(=O)NCCc2ccc(S(N)(=O)=O)cc2)CC(=O)O)CC(=O)O)cc1` [listing 1 of 2 here] gave a Ki in test [1] of 16 nM.

In turn, `NNc1ccc(S(N)(=O)=O)cc1` had a Ki in test [1] of 3200 nM. This Ki lies about 200-fold higher than the previous one.

As to `NS(=O)(=O)c1ccc(NC(=O)CN(CCN(CCN(CC(=O)O)CC(=O)Nc2ccc(S(N)(=O)=O)cc2)CC(=O)O)CC(=O)O)cc1`, in test [1], the affinity corresponds to a Ki of 100 nM.

`NS(=O)(=O)c1ccc(CCNC(=O)CN(CCN(CCN(CC(=O)O)CC(=O)NCCc2ccc(S(N)(=O)=O)cc2)CC(=O)O)CC(=O)O)cc1` [listing 2 of 2 here] showed a Ki in test [1] of 25 nM.

On to `Nc1c(S(N)(=O)=O)cc(S(N)(=O)=O)c(Cl)c1Cl`, for which the affinity in test [1] corresponds to a Ki of 175 nM.

As for `NS(=O)(=O)c1nc2ccc(OCCO)cc2s1`, the inhibitory constant (Ki) in test [1] turned out to be 15 nM.

`Nc1ccc(S(N)(=O)=O)cc1I` showed a Ki in test [1] of 125 nM.

In the case of `NS(=O)(=O)c1ccc(CNC(=O)CN(CCN(CCN(CC(=O)O)CC(=O)NCc2ccc(S(N)(=O)=O)cc2)CC(=O)O)CC(=O)O)cc1` [listing 2 of 2 here], the Ki in test [1] was 21 nM.
